Tested on: dystrophin exon 23
Test: Dystrophin expression (immunostaining of muscle sections) in mdx dystrophic mice after antisense oligonucleotide PMOE23
Format: in vivo, mouse
Description: The mdx dystrophic mouse contains a nonsense point mutation in the dystrophin exon 23. PMOE23 (5′[…]-3′) (SEQ ID NO:1) oligo binds to the exon-intron boundary of the dystrophin exon 23, resulting in the skip of the exon 23 and restoration of the reading frame and the expression of the dystrophin protein. The mdx mice are treated with antisense oligonuleotide PMOE23 (5′[…]-3′) (SEQ ID NO:1) via intravenous injection and the muscles are examined 2 weeks later. Saline treated, mouse was treated with saline without PMO as control. PMO only, mouse was treated with single dose 1 mg PMO only. PMO+Repa, mouse was treated with single dose 1 mg PMO and Repaglinide. 100 microgram Repaglinide was gavaged before the injection of PMO. Quad, quadriceps. Blue are DAPI stained nuclei; red staining representing membrane localized dystrophin expression.
A comparison of levels of dystrophin expression after treatment with morpholino antisense oligonucleotide PMOE23 and Eicosapentaenoic acid (EPA)-linked PMOE23 in 4-6 weeks old mdx dystrophic mice. […] PMOE23 (5′[…]-3′) (SEQ ID NO:1) oligo binds to the exon-intron boundary of the dystrophin exon 23, resulting in the skip of the exon 23 and restoration of the reading frame and the expression of the dystrophin protein. […] 6 μm sections were cut from freshly frozen muscles and stained with rabbit anti-dystrophin antibody P7 and detected with goat-anti-rabbit Ig-Alexa 594. […] Images were taken by Olympus BX52 fluorescence microscope.
A comparison of levels of dystrophin expression after treatment with morpholino antisense oligonucleotide PMOE23 and PMOE23 in combination with the use of insulin in 4-6 weeks old mdx dystrophic mice. […] PMOE23 (5′[…]-3′) (SEQ ID NO:1) oligo binds to the exon-intron boundary of the dystrophin exon 23, resulting in the skip of the exon 23 and restoration of the reading frame and the expression of the dystrophin protein. […] 6 μm sections were cut from freshly frozen muscles and stained with rabbit anti-dystrophin antibody P7 and detected with goat-anti-rabbit Ig-Alexa 594. […] Images were taken by Olympus BX52 fluorescence microscope.

PMO only: morpholino antisense oligonucleotide PMOE23, 5′GGCCAAACCTCGGCTTACCTGAAAT-3′ (SEQ ID NO:1), skips dystrophin exon 23 (all phosphorodiamidate morpholino (PMO))
number of dystrophin positive fibers / membrane localized dystrophin expression in muscle (Example 1, FIG. 1: mdx mice, single dose 1 mg PMO intravenous, 100 microgram Repaglinide gavaged before PMO, muscles examined 2 weeks later): only a few muscle fibers expressing weak dystrophin
number of dystrophin positive fibers / membrane localized dystrophin expression in muscle (Example 2, FIG. 2: 4-6 weeks old mdx mice, single intravenous dose 1 mg PMOE23 or 0.7 mg EPA-linked PMOE23, muscles examined 2 weeks later, antibody P7): only a few muscle fibers expressing weak dystrophin
number of dystrophin positive fibers / membrane localized dystrophin expression in muscle (Example 3, FIG. 3: 4-6 weeks old mdx mice, single intravenous dose 1 mg PMOE23, 0.5 unit Insulin subcutaneously immediately after PMO, muscles examined 2 weeks later, antibody P7): only a few muscle fibers expressing weak dystrophin

Reference: US20170173069A1, “METHODS OF NUCLEOTIDE AND GENE DELIVERY USING MEMBRANE TRANSPORT MECHANISMS” (The Charlotte Mecklenburg Hospital Authority d/b/a …, priority 2015, published 2017)
